# Measured values taken from ChEMBL document CHEMBL1201862, “PubChem BioAssay data set” (2004).
# Activity calls are given as the source filed them.
# Columns and labels:
# [1] = target: T1, Carboxy-terminal domain RNA polymerase II polypeptide A small phosphatase 1 (Homo sapiens, UniProt Q9GZU7); test: inhibitors of CTDSP1, concentration-response testing, biochemical assay, absorbance-based, actives from ultra-high-throughput screening (AID 540297); format: functional
# T1 sequence (Q9GZU7 whole entry): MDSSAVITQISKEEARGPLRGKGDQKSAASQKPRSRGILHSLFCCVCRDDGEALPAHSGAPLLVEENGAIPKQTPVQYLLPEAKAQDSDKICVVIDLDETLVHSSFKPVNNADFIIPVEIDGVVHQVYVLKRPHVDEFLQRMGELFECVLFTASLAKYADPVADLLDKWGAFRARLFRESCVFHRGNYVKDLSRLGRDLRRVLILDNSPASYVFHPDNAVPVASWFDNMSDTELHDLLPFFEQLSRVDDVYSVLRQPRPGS
# [2] = target: FAD-linked sulfhydryl oxidase ALR (Homo sapiens, UniProt P55789); test: inhibitors of human ALR sulfhydryl oxidase, dose response, biochemical, H2O2 detection, luminescence, cherry-pick (AID 493248)
# [3] = growth suppression of beta-catenin-knockout colon cells, dose response, cell-based, HCT116, human colon tumor (AID 1045); format: functional;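 further: HCT116 colon tumor cells with beta catenin knocked out; cells exposed to compound for 60 hours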
# [4] = growth suppression of PTEN-null colon cells, dose response, cell-based, HCT116 PTEN knockout (AID 1047); format: functional;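 further: HCT116 colon tumor cells with PTEN knocked out; cells exposed to compound for 60 hours before readout; potency for loss of cell viability measured by luminescence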
# [5] = microbe, parasite or virus in culture; format: functional; settings: Mycobacterium tuberculosis
# [6] = Luminescence Cell-Based Dose Response HTS to Identify Activators of Luciferase Translation or Activity in H4 […] Cells. [Related pubchem assays: 1829 (Project Summary), 1814 (Primary HTS)]; format: functional
# H4 = test: Luminescence Cell-Based Dose Response HTS to Identify Activators of 5'UTR Stem-Loop Driven Prion Protein mRNA Translation in H4 Neuroglioblastoma Cells. [Related pubchem assays: 1829 (Project Summary), 1814 (Primary HTS)]; format: functional; settings: Homo sapiens
# [7] = Luminescence Cell-Based Dose Confirmation HTS to Identify Activators of 5'UTR Stem-Loop Driven Alpha-Synuclein mRNA Translation in H4 Neuroglioblastoma Cells. [Related pubchem assays: 1829 (Project Summary), 1814 (Primary HTS)]; format: functional
# [8] = C. albicans growth with fluconazole, confirmation, fluorescence, retest (AID 2467); format: functional, cell-based
# [9] = NIH-3T3 fibroblast cytotoxicity, dose response, cytotoxicity control, cell-based, fluorescence, Alamar Blue, secondary assay (AID 2327); format: functional;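 further: NIH-3T3 mouse fibroblasts cultured with fluconazole at 8 µg/mL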
# [10] = target: T2, Corticotropin-releasing factor receptor 2/Corticotropin-releasing factor-binding protein (Homo sapiens, UniProt P24387+Q13324); test: activators of CRF receptor 2 with binding protein – uHTS hits, confirmation (AID 602473); format: functional; settings: read-out: EC50_Mean
# T2 sequence (Q13324 whole entry): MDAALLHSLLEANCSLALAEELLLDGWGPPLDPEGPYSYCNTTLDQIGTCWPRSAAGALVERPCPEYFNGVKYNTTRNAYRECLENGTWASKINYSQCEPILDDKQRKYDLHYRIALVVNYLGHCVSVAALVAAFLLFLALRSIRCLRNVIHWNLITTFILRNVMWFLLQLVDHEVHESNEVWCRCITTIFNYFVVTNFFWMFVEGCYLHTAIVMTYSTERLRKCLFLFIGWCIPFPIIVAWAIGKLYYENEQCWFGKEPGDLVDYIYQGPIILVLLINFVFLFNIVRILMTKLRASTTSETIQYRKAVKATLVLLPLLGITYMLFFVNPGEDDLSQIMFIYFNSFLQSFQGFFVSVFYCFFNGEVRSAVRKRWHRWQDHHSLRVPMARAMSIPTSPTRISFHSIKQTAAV
# T2 sequence (P24387 whole entry): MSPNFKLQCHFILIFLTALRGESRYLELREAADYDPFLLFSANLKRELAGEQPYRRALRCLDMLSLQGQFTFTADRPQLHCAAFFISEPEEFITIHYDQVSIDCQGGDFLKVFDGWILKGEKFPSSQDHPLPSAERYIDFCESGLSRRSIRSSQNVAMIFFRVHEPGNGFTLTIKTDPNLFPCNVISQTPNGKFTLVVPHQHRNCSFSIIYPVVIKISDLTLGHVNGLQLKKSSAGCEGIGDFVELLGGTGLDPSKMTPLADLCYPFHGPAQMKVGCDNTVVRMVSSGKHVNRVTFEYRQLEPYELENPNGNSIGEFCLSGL
# [11] = target: T2, Corticotropin-releasing factor receptor 2/Corticotropin-releasing factor-binding protein; test: Dose Response confirmation of uHTS hits for small molecule antagonists of the CRF-binding protein and CRF-R2 receptor complex.; format: functional; settings: read-out: IC50_Mean
# [12] = cytotoxicity toward NIH3T3 fibroblasts, dose response, counter-screen, cell-based, ATP luminescence, mouse fibroblasts (AID 2010); format: functional;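 further: cells exposed to compound for about 90 hours before reading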
# [13] = inhibitors of intracellular T. cruzi replication, confirmation, NIH3T3 host cells, beta-gal luminescence (AID 2044); format: functional, cell-based;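 further: intracellular parasites grown in NIH/3T3 mouse fibroblasts as host cells; luminescent beta-galactosidase reporter signal from transgenic T. cruzi replicating inside host cells; inhibitors lower the luminescence signal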
# INS1 = test: beta cell apoptosis inhibitors, cytokine rescue, dose response, luminescence, retest (AID 449756); format: functional, cell-based; settings: Rattus norvegicus;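 further: cell death triggered by IL-1 beta plus TNF-alpha plus IFN-gamma mixture; protective hits raise ATP signal compared with cytokine alone wells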
# [14] = test system: Streptococcus sp. 'group A'; test: growth inhibition of control SK(-) GAS strain, dose response, counter-screen for streptokinase expression inhibitor project, luminescence, kanamycin, BacTiterGlo, confirmation (AID 1900); format: functional, organism-based
# Streptococcus = test: Group A Streptococcus viability loss, dose response, counter-screen for streptokinase expression inhibitor project, luminescence, BacTiterGlo (AID 1915); format: functional, organism-based;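 further: potency for reduction of bacterial viability or growth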
# Streptokinase A = target: T3, Streptokinase A (Streptococcus pyogenes serotype M1, UniProt P10520); test: S. pyogenes streptokinase expression inhibitors, potency, dose response, plasminogen activation absorbance, OD405 (AID 1914); format: functional, Streptococcus pyogenes M1 GAS;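 further: secreted streptokinase activity via plasminogen activation per viability signal from cell pellet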
# T3 sequence (P10520 whole entry): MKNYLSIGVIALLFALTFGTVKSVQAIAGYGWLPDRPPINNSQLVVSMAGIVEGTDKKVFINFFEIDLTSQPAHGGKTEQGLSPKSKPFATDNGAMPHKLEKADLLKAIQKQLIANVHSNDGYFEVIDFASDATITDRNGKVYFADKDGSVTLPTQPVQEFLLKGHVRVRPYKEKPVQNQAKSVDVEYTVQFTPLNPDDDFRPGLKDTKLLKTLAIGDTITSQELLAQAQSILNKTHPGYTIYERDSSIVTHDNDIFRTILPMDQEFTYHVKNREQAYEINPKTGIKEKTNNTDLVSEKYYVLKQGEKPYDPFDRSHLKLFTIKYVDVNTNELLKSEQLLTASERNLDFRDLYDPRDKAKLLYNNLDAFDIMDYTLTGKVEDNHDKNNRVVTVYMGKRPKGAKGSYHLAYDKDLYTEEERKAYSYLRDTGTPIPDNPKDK
# [15] = target: T4, Rac GTPase-activating protein 1 (Homo sapiens, UniProt Q9H0H5); test: MgcRacGAP GTPase-activating activity inhibitors, confirmation, biochemical, ADP Hunter fluorescence, primary and confirmatory (AID 624330); format: functional
# T4 sequence (Q9H0H5 whole entry): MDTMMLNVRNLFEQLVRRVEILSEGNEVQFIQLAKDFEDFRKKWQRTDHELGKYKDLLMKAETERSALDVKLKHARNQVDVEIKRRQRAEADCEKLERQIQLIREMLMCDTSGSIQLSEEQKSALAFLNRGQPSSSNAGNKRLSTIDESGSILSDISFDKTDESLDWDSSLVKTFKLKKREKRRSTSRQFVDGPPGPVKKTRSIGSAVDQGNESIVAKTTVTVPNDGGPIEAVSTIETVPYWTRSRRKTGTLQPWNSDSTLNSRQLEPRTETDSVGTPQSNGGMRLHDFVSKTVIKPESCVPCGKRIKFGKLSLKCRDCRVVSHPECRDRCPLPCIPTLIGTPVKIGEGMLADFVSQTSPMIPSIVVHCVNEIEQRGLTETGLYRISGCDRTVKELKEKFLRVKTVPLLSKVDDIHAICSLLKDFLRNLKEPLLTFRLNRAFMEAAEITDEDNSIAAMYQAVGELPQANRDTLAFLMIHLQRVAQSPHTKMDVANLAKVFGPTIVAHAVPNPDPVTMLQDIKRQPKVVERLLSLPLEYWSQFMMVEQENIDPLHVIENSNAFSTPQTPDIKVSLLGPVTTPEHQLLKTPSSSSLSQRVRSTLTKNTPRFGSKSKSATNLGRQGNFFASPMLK
# H9c2 = test: cells; format: functional, cell-based; settings: Rattus norvegicus, H9c2, Myocardium;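 further: confirmatory concentration-response retest of ultra-high-throughput screening hits for modulation of myocardial damage; cell death induced by hydrogen peroxide oxidative stress; compound pretreatment for 60 min then peroxide exposure for 2 h; potency is for protecting the cells against peroxide damage rather than for killing them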
# [16] = Shn3 3'UTR reporter inhibitors, dose response, cell-based, Clone20 osteoblasts, firefly luciferase, cherry-picked (AID 624132); format: functional;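 further: firefly luciferase luminescence from reporter carrying the Shn3 3'UTR in osteoblasts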
# [17] = Luminescence Cell-Based Dose Retest to Confirm Inhibitors of Cancer Stem Cells. [Related pubchem assays (depositor defined):AID2717, AID2721]; format: functional; settings: Homo sapiens
# Sequence of FAD-linked sulfhydryl oxidase ALR (P55789 whole entry): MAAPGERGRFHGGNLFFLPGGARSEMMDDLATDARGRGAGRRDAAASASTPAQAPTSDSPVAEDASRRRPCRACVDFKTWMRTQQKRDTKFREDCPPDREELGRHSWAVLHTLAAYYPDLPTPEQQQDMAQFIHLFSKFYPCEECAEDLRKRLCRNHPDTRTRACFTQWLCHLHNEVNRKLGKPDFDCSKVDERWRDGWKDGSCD
compound,measurement,setting,value
Cc1ccn2c(=O)nc(SCC(=O)NCc3ccc4c(c3)OCO4)nc2c1,IC50,[1],10.5 µM (active)
Cc1occc1C(=O)NCCCCc1ccccc1,AC50,[2],0.488 µM (active)
CC(=O)Nc1ccccc1N(CC(O)Cn1c2ccccc2c2ccccc21)S(=O)(=O)c1ccc(C)cc1 (configuration not stated),EC50,[3],17.1 µM (active)
same,EC50,[4],13.5 µM (active)
S=C(Nc1ccc(Cl)cc1)NC1CC2CCC(C1)N2Cc1ccccc1 (configuration not stated),CC50,[5],> 40 µM (active)
N=c1c2c(ncn1CCN1CCOCC1)Oc1ccc3ccccc3c1C2c1ccccc1 (configuration not stated),EC50,[3],15.3 µM (active)
same,EC50,[4],16.5 µM (active)
Sc1nnc(-c2ccc(Cl)cc2Cl)n1-c1ccccc1,EC50,[6],56.4 µM (active)
same,EC50,H4,14.9 µM (active)
same,EC50,[7],15.5 µM (active)
CCCCC(=O)OCC(=O)N1N=C(c2c[nH]c3ccccc23)C(O)C1c1ccc(OC)cc1 (configuration not stated),CC50,[5],> 40 µM (active)
COc1ccc(C2Nc3ccccc3C(=O)N2O)cc1OC (configuration not stated),EC50,[8],> 38 µM (not active)
same,EC50,[9],> 150 µM (inactive)
CN1C(c2ccc(F)cc2)=CS/C1=C(/C#N)c1nnc(N2CCOCC2)n1-c1ccccc1,EC50,[10],> 53 µM (inactive)
same,EC50,[6],> 120 µM (not active)
same,EC50,H4,> 120 µM (not active)
same,EC50,[7],> 120 µM (not active)
same,IC50,[11],> 47.1 µM (inactive)
Cc1ccc(Cn2ncn(-c3ccccc3)c2=O)cc1,EC50,[6],24.1 µM (active)
same,EC50,H4,7.14 µM (active)
same,EC50,[7],14.4 µM (active)
Cc1cccc(C(=O)NC2CCN(C(=O)NCc3ccccc3)CC2)c1,IC50,[1],12.1 µM (active)
C=CCn1c(=N)n(CC(=O)c2cccc([N+](=O)[O-])c2)c2ccccc21,EC50,[8],> 38 µM (not active)
same,EC50,[9],134 µM (active)
CCOC(=O)N1CCC(N2Cc3cccc(C(=O)Nc4ccc(N(CC)CC)cc4C)c3C2=O)CC1,CC50,[5],> 40 µM (active)
CCCc1cc(=O)oc2cc(OCC(=O)NC(Cc3c[nH]c4ccc(O)cc34)C(=O)O)c(Cl)cc12 (configuration not stated),IC50,[1],32.7 µM (active)
Cc1ccc(NC2CCCN(C(=O)c3ccc(C)c(N4CCNC4=O)c3)C2)cc1C (configuration not stated),AC50,[2],3.32 µM (active)
O=C(CN1C(=O)S/C(=C\c2ccc(O)c([N+](=O)[O-])c2)C1=O)Nc1ccc(N2CCOCC2)cc1,IC50,[1],2.65 µM (active)
CN=C(S)N=CNOCc1c(Cl)cccc1Cl,CC50,[5],> 40 µM (active)
Cc1ccc(Nc2nnc(C3C(=O)N(C)C4(C)CC3c3cc(Br)ccc3O4)s2)cc1 (configuration not stated),EC50,[8],4.45 µM (active)
same,EC50,[9],19.8 µM (active)
CCn1c(=O)c(CCC(=O)N2CCN(c3ccccn3)CC2)c(C)c2c(C)nn(-c3cccc(C)c3)c21,EC50,[12],> 60 µM (not active)
same,CC50,[5],> 40 µM (active)
same,EC50,[13],1.59 µM (active)
CC1=CC(C)(C)n2c(O)c(C3=NC(=S)NC3=O)c3cc(OC(=O)c4cccc5ccccc45)cc1c32,EC50,[3],24 µM (active)
same,EC50,[4],19.6 µM (active)
c1ccc2c(c1)ncn2CCCOc1ccc2c(c1)CCC2,EC50,[3],21.6 µM (active)
same,AC50,INS1,7.64 µM (active)
same,EC50,[4],30.5 µM (active)
same,EC50,[14],22.4 µM (active)
same,EC50,Streptococcus,> 150 µM (not active)
same,EC50,Streptokinase A,> 150 µM (not active)
N#C/C=C\Oc1ccc(Cl)cc1N,CC50,[5],> 40 µM (active)
same,IC50,[15],218 µM (active)
Cc1ccc2nc(O)c(CN(Cc3ccco3)S(=O)(=O)c3c(C)ccc4nsnc34)cc2c1,EC50,[3],14.8 µM (active)
same,IC50,H9c2,8.78 µM (active)
same,EC50,[4],13.2 µM (active)
COc1cc(C(=O)c2ccccc2)c(OC)cc1C(=O)Nc1ccc(O)cc1,AC50,[2],0.039 µM (active)
CC(=O)OCC1=C(C(=O)OC(C)(C)C)N2C(=O)[C@@H](NC(=O)Cc3ccccc3)[C@H]2SC1,IC50,[1],8.61 µM (active)
COc1cccc(OC)c1C(=O)N1CCN=C1SCc1cccnc1,AC50,[2],0.043 µM (active)
CCOC(=O)C1(C)Oc2ccccc2C(C(=O)OC)=C1C(=O)OC (configuration not stated),IC50,[1],23.6 µM (active)
O=C(COC(=O)c1ccc(Br)o1)NCc1ccco1,IC50,[1],9.79 µM (active)
NS(=O)(=O)c1ccc(CNC(=S)NC(=O)c2ccco2)cc1,AC50,[16],22.9 µM (active)
Cc1cccc(OCCNc2cc(N3CCN(C)CC3)ccc2[N+](=O)[O-])c1,EC50,[12],> 60 µM (not active)
same,EC50,[3],86.1 µM (active)
same,AC50,[17],1.47 µM (active)
same,EC50,[13],0.495 µM (active)
same,EC50,[4],19.8 µM (active)
Cc1cccc(/C=N/n2c(S)nnc2-c2ccccc2)c1O,AC50,[2],3.82 µM (active)
O=C1C2C3C=CC(C4CC34)C2C(=O)N1/N=C/c1c[nH]c2ccccc12 (configuration not stated),EC50,[6],> 120 µM (not active)
same,EC50,H4,14.9 µM (active)
same,EC50,[7],11 µM (active)
